Results reported in patent US11834453B2, “Substituted pyrimido[5,4-d]pyrimidines as HER2 inhibitors” (Array BioPharma Inc., priority 2020, dated 2023).
Like-named read-outs stand apart in the source and are kept apart here.

Experiments:
[1] = biological target: ErbB2 insYVMA (HER2-YVMA, SEQ ID NO: 2) (Homo sapiens, UniProt P04626, INS775YVMA/P1170A); assay: biochemical; settings: ErbB2 insYVMA enzyme assay
ErbB2 WT = ErbB2 WT (Homo sapiens (Human), UniProt P04626); assay: ErbB enzyme assay (CisBio HTRF KinEASE-TK), Assay 2; type: biochemical
Chain of ErbB2 WT (P04626 23-1255): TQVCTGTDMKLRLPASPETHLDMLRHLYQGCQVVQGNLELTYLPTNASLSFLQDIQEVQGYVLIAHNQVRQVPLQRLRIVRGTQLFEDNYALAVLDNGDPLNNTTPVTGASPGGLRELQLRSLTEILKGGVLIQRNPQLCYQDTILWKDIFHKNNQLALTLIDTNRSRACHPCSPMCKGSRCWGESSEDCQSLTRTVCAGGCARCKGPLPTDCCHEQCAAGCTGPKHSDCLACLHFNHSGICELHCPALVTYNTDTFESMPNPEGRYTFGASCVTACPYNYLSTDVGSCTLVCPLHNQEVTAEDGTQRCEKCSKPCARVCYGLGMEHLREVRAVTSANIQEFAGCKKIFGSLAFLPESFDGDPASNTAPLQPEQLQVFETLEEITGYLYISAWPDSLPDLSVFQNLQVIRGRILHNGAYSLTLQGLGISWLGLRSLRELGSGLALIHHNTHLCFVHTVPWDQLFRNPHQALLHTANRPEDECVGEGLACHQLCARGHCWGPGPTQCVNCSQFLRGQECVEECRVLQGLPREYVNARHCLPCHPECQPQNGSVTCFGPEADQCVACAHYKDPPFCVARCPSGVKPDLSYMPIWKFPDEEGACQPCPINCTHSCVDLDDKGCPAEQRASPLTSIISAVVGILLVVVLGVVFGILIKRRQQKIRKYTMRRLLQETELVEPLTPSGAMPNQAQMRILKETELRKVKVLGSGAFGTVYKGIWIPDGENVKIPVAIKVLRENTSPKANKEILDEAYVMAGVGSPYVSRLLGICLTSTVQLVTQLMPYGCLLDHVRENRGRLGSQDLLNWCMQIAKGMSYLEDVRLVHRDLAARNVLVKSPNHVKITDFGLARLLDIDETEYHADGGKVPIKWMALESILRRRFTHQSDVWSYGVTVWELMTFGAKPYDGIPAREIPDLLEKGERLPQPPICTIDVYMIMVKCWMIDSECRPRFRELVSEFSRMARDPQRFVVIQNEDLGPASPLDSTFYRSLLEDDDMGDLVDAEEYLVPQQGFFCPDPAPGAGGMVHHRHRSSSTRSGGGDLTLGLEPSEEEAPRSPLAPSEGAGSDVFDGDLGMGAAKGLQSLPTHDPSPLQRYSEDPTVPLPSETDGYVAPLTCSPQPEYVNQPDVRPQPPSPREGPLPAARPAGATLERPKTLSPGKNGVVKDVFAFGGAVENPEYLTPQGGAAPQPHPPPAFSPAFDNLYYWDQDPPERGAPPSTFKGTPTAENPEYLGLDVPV
How it was run: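 ErbB2 phosphorylates 250 nM biotin-TK substrate at 1 mM ATP in 25 mM HEPES pH 7.4, 10 mM MgCl2, 0.01% Triton X-100 and 2% DMSO, for 30 min at 22 °C. Product is detected by HTRF with Sa-XL665 and TK-Ab-Cryptate. Percent of control is set by DMSO-only wells and pre-quenched wells.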

EGFR = EGFR (Homo sapiens (Human), UniProt P00533); assay: ErbB enzyme assay (CisBio HTRF KinEASE-TK), Assay 3; type: biochemical
How it was run: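 Inhibition is measured as reduced peptide phosphorylation by HTRF KinEASE-TK at 1 mM ATP and 250 nM substrate, 30 min at 22 °C. Values are IC50s from a 4-parameter logistic fit.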

[2] = biological target: ErbB2 with Exon 20 YVMA insertion (HER2-YVMA) (Homo sapiens (Human), UniProt P04626, INS775YVMA); assay: Cellular phosphorylation assay, constitutive ErbB2 phosphorylation (Y1196) in engineered NIH 3T3 cells, Assay 4; type: cell-based
Chain of ErbB2 with Exon 20 YVMA insertion (HER2-YVMA) (P04626 other isoform, or with tags, fused parts or gaps ins YVMA behind 775): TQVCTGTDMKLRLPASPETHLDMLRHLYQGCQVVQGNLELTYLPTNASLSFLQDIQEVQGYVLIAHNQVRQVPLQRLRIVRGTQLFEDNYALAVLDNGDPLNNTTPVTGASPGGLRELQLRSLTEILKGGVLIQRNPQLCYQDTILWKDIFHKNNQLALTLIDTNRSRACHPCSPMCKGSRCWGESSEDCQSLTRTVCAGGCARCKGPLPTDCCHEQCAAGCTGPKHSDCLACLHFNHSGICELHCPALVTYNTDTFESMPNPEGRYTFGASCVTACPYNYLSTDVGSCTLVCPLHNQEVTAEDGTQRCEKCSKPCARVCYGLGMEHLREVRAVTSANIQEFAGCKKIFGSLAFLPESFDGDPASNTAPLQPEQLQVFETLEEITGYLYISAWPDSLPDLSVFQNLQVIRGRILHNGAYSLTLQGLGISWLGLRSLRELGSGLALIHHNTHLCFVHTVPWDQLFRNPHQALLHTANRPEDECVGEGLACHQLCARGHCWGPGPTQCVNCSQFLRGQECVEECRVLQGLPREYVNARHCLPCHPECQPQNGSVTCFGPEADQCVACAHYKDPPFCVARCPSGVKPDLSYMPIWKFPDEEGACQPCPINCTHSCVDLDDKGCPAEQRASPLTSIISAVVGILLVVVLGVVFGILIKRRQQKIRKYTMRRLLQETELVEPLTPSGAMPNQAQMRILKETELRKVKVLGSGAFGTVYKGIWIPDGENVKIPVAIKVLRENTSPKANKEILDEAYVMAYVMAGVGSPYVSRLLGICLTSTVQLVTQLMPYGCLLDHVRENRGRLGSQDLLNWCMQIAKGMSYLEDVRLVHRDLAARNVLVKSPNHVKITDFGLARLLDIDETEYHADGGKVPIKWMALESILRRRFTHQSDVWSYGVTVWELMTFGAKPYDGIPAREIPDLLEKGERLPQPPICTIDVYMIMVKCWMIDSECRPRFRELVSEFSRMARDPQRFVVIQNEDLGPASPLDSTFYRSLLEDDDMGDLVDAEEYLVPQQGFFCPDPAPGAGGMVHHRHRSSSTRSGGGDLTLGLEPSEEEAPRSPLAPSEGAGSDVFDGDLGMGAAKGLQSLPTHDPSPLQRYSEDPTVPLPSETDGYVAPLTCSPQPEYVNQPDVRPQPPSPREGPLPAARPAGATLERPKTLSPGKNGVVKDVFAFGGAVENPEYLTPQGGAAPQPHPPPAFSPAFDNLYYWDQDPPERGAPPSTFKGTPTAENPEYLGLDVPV
How it was run: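 Engineered NIH 3T3 cells expressing HER2-YVMA treated with compounds 1 h at 37 °C, then formaldehyde-fixed and methanol-permeabilized. pErbB2 Y1196 detected by in-cell infrared immunofluorescence, normalized to GAPDH. IC50 from the normalized curves.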

EGFR wild type (EGFR WT) = EGFR wild type (EGFR WT) (Homo sapiens (Human), UniProt P00533); assay: Cellular phosphorylation assay, EGF-stimulated EGFR phosphorylation in engineered NIH 3T3 cells, Phospho-EGFR DuoSet IC ELISA, Assay 5; type: cell-based
How it was run: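 NIH 3T3 cells expressing EGFR WT (20,000/well, attached overnight) were exposed to serially diluted compound for 1 h at 37 °C, then stimulated with 100 ng/ml rEGF for 10 min. Phospho-EGFR in lysates measured by sandwich ELISA optical density; IC50 from curves.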

MDR1 (P-gp) = MDR1 (P-gp) (Homo sapiens (Human), UniProt P08183); assay: MDR1 transfected MDCKII canine Mdr1 knockout permeability/efflux, Assay 7; settings: dog, MDCK-MDR1
Chain of MDR1 (P-gp) (P08183 whole entry): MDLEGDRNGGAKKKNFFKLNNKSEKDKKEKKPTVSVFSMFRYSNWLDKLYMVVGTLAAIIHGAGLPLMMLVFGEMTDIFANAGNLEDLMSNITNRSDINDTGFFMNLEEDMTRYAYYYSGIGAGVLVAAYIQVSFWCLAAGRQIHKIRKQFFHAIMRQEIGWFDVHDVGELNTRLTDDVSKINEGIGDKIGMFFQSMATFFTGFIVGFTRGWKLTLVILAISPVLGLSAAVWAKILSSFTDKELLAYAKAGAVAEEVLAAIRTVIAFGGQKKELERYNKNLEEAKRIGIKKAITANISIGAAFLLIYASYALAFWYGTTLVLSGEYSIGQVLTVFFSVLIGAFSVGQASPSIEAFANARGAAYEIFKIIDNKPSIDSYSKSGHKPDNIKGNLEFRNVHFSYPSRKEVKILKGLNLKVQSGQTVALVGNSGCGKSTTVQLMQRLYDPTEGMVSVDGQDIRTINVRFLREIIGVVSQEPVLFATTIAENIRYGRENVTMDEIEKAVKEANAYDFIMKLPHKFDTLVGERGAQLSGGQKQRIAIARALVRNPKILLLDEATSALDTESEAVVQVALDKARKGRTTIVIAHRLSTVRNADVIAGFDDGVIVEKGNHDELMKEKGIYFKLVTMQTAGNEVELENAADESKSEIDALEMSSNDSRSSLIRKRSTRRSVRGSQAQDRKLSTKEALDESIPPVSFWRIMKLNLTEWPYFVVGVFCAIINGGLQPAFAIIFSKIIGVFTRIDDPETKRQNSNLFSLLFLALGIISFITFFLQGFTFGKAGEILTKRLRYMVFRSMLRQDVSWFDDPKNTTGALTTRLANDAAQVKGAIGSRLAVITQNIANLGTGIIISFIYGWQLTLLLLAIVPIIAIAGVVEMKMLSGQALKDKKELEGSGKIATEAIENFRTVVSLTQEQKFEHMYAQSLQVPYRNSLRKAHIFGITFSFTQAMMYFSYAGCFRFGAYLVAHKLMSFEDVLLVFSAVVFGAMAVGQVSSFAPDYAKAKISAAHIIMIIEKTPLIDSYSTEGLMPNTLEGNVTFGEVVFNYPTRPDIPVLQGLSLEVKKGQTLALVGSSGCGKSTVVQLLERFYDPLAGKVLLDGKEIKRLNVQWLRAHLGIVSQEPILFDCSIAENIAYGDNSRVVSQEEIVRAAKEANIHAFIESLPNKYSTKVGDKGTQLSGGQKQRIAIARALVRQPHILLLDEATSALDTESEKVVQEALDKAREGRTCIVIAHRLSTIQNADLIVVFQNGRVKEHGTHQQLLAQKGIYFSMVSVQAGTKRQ
Protocol: Both MDR1 transfected LLC-PK1 (Assay 6) and MDR1 transfected MDCKII canine Mdr1 knockout cells (Assay 7) were cultured and plated according to manufacturer's recommendations with the exception that the passage media for the MDR1 transfected LLC-PK1 cell line contained only 2% fetal bovine serum so as to extend passage time out to seven days.
(§1) Both positive and negative controls were used to assess functionality of P-gp or BCRP efflux in the assays. Stock solutions for assay controls and the test article were prepared in DMSO for final test concentration of 1 μM. Final organic concentration in the assay was 1%. All dosing solutions contained 10 μM lucifer yellow to monitor MDCKII cell monolayer integrity.
(§2) For the apical to basolateral determination (A to B), 75 μL of the test article in transport buffer were added to the apical side of the individual transwells and 250 μL of basolateral media, without compound or lucifer yellow, were added to each well. For the basolateral to apical determination (B to A), 250 μL of test article in transport buffer were added to each well and 75 μL transport buffer, without compound or lucifer yellow, were added to each transwell. All tests were performed in triplicate, and each compound was tested for both apical to basolateral and basolateral to apical transport. The plates were incubated for 2 hours on a Lab-Line Instruments Titer Orbital Shaker (VWR, West Chester, PA) at 50 rpm and 37° C. with 5% CO2. All culture plates were removed from the incubator, 50 μL of media were removed from the apical and basolateral portion of each well, and added to 150 μL of 1 μM labetalol in 2:1 acetonitrile (ACN): H2O, v/v.
The plates were read using a Molecular Devices (Sunnyvale, CA) Gemini Fluorometer to evaluate the lucifer yellow concentrations at excitation/emission wavelengths of 425/535 nm. These values were accepted when found to be below 2% for apical to basolateral and 5% basolateral to apical flux across the MDR1-transfected LLC-PK1 or BCRP-transfected MDCKII cell monolayers. The plates were sealed, and the contents of each well analyzed by LC MS/MS. The compound concentrations were determined from the ratio of the peak areas of the compound to the internal standard (labetalol) in comparison to the dosing solution.
(§3) A MDS Sciex API 4000 (Applied Biosystems, Foster City, CA) mass spectrometer was used for detection of the analytes in the ion spray positive mode. Analyte responses were measured by multiple reaction monitoring (“MRM”) of transitions unique to each compound (the protonated precursor ion and selected product ions for each test article and m/z 329 to m/z 162 for labetalol, the internal standard.
(§4) The total run time, including re-equilibration, for a single injection was 1.2 minutes. […] The total run time, including re-equilibration, for a single injection was 0.61 minutes.
(§5) An efflux ratio is calculated from the mean apical to basolateral (A-B) Papp data and basolateral to apical (B-A) Papp data: Efflux ratio=Papp(B−A)/Papp(A−B)

BCRP = BCRP (Homo sapiens (Human), UniProt Q9UNQ0); assay: BCRP transfected MDCKII canine Mdr1 knockout permeability/efflux, Assay 9; settings: dog
Protocol: BCRP transfected MDCKII cells (Assay 8) and BCRP transfected MDCKII canine Mdr1 knockout cells (Assay 9) were cultured and plated according to manufacturer's recommendations.
as §1, §2
The plates were read using a Molecular Devices (Sunnyvale, CA) Gemini Fluorometer to evaluate the lucifer yellow concentrations at excitation/emission wavelengths of 425/535 nm. […] The plates were sealed, and the contents of each well analyzed by LC MS/MS. The compound concentrations were determined from the ratio of the peak areas of the compound to the internal standard (labetalol) in comparison to the dosing solution.
as §3, §4, §5

[3] = Assay 9 Pe Ratio, efflux ratio Papp(B-A)/Papp(A-B), BCRP transfected MDCKII canine Mdr1 knockout

Chain of ErbB2 insYVMA (HER2-YVMA, SEQ ID NO: 2) (P04626 with tags, fused parts or gaps INS775YVMA/P1170A limits assumed): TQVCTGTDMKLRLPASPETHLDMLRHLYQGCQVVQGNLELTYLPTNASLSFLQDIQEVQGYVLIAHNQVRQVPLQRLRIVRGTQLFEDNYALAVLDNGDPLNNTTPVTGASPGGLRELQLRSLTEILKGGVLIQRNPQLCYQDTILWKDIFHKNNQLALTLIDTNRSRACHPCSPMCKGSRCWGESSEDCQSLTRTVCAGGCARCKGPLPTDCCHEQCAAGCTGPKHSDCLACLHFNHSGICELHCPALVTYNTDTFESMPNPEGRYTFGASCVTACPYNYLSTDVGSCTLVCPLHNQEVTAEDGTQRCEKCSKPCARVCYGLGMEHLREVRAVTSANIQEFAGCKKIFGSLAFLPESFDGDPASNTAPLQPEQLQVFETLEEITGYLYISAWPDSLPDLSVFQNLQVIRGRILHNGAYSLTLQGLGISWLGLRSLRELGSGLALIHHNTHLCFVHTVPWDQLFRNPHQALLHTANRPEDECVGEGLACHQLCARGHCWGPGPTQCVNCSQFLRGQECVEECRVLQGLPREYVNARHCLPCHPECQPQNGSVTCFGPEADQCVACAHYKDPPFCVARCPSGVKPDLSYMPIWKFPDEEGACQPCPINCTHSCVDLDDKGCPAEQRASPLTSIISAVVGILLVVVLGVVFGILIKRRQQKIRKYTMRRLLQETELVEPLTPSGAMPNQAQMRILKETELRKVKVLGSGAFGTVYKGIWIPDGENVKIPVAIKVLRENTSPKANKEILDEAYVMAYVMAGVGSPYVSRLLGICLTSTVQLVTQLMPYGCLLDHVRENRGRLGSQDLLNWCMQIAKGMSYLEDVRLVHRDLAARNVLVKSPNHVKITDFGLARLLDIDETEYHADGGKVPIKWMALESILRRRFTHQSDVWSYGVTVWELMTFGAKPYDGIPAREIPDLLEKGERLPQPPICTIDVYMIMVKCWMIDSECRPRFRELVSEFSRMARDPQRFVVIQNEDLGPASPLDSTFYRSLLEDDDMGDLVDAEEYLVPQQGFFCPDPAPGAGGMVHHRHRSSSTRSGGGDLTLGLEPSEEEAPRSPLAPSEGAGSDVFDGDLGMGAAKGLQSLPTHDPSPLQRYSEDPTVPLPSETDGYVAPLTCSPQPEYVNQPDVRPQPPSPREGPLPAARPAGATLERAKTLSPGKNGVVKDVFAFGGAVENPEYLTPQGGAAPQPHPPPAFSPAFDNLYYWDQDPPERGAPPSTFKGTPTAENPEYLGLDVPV

SMILES | IC50 ([1]; read-out: Assay 1 IC50) [nM] | IC50 (ErbB2 WT) [nM] | IC50 (EGFR) [nM] | IC50 [2] [nM] | IC50 (EGFR wild type (EGFR WT)) [nM] | efflux ratio at 2 h, 1 μM (MDR1 (P-gp)) | efflux ratio at 2 h, 1 μM (BCRP) | efflux ratio at 2 h, 1 μM (BCRP; [3]) | IC50 ([1]; Assay 1 IC50 (nM)) [nM]
Cc1cc(Nc2ncnc3cnc(N4CC5(C4)CC(C)(O)C5)nc23)ccc1Oc1ccc2c(c1)ncn2C [Example 156, 6-methyl-2-(8-((3-methyl-4-((1-methyl-1H-benzo[d]imidazol-5-yl)oxy)phenyl)amino)pyrimido[5,4-d]pyrimidin-2-yl)-2-azaspiro[3.3]heptan-6-ol] | 6.4 | 5.2 | ≥ 10000 | 12.3 | ≥ 5000 | 2 | 26 | – | –
CO[C@H]1CN(c2ncc3ncnc(Nc4ccc(Oc5ccc6c(c5)ncn6C)c(C)c4)c3n2)C[C@H]1O [Example 197, (3R,4S)-4-methoxy-1-(8-((3-methyl-4-((1-methyl-1H-benzo[d]imidazol-5-yl)oxy)phenyl)amino)pyrimido[5,4-d]pyrimidin-2-yl)pyrrolidin-3-ol] | 14.1 | 21 | 8640 | 44.9 | ≥ 5000 | 1.8 | – | 35.7 | –
Cc1cc(Nc2ncnc3cnc(N4CCC(F)(F)C4)nc23)ccc1Oc1ccc2c(c1)ncn2C [Example 299] | 49.8 | 146 | ≥ 10000 | 30.5 | ≥ 5000 | 0.4 | – | 1.2 | –
Cc1cc(Nc2ncnc3cnc(N4CC[C@@](O)(C(F)F)C4)nc23)ccc1Oc1ccc2c(c1)ncn2C (racemic) [Example 106, rac-(R)-3-(difluoromethyl)-1-(8-((3-methyl-4-((1-methyl-1H-benzo[d]imidazol-5-yl)oxy)phenyl)amino)pyrimido[5,4-d]pyrimidin-2-yl)pyrrolidin-3-ol] | 16.8 | 16.6 | 2840 | 18.4 | ≥ 5000 | 2.6 | – | 24.3 | –
CN(c1ncc2ncnc(Nc3ccc(Oc4ccc5c(c4)ncn5C)c(Cl)c3)c2n1)C1COC1 [Example 123, N8-(3-chloro-4-((1-methyl-1H-benzo[d]imidazol-5-yl)oxy)phenyl)-N2-methyl-N2-(oxetan-3-yl)pyrimido[5,4-d]pyrimidine-2,8-diamine] | 26.5 | 118 | ≥ 10000 | 13.2 | ≥ 5000 | 1.6 | – | 2.4 | –
Cc1cc(Nc2ncnc3cnc(N4C[C@@H](O)C5(CC5)C4)nc23)ccc1Oc1ccc2c(c1)ncn2C [Example 211, (S)-5-(8-((3-methyl-4-((1-methyl-1H-benzo[d]imidazol-5-yl)oxy)phenyl)amino)pyrimido[5,4-d]pyrimidin-2-yl)-5-azaspiro[2.4]heptan-7-ol] | 10.9 | 31 | 3140 | 14.8 | ≥ 5000 | 3.3 | 25.2 | – | –
Cn1cnc2cc(Oc3ccc(Nc4ncnc5cnc(N6CC[C@@H](CC#N)C6)nc45)cc3Cl)ccc21 [Example 134, (S)-2-(1-(8-((3-chloro-4-((1-methyl-1H-benzo[d]imidazol-5-yl)oxy)phenyl)amino)pyrimido[5,4-d]pyrimidin-2-yl)pyrrolidin-3-yl)acetonitrile] | 55.1 | – | ≥ 10000 | 8.5 | ≥ 5000 | 1.8 | – | 6.8 | –
Cc1cc(Nc2ncnc3cnc(N4C[C@H](O)C(F)(F)C4)nc23)ccc1Oc1ccc2c(c1)ncn2C [Example 170, (S)-4,4-difluoro-1-(8-((3-methyl-4-((1-methyl-1H-benzo[d]imidazol-5-yl)oxy)phenyl)amino)pyrimido[5,4-d]pyrimidin-2-yl)pyrrolidin-3-ol] | 20.1 | 28.6 | ≥ 10000 | 3.4 | ≥ 5000 | 2.1 | – | 36 | –
Cn1cnc2cc(Oc3ccc(Nc4ncnc5cnc(N6CCN[C@@H](C(F)(F)F)C6)nc45)cc3Cl)ccc21.O=C(O)C(F)(F)F [Example 146, (R)—N-(3-chloro-4-((1-methyl-1H-benzo[d]imidazol-5-yl)oxy)phenyl)-6-(3-(trifluoromethyl)piperazin-1-yl)pyrimido[5,4-d]pyrimidin-4-amine 2,2,2-trifluoroacetate] | – | 58.2 | 3720 | 35.5 | ≥ 5000 | 0.8 | 5.1 | – | 54.1
Cc1cc(Nc2ncnc3cnc(N4CCO[C@H](C)C4)nc23)ccc1Oc1ccc2c(c1)ncn2C [Example 265] | 46.5 | 45.6 | 5350 | 16.8 | ≥ 5000 | 1.1 | – | 1.8 | –
CC(C)(O)[C@@H]1CCN(c2ncc3ncnc(Nc4ccc(Oc5ccn6ncnc6c5)c(Cl)c4)c3n2)C1 [Example 122, (R)-2-(1-(8-((4-([1,2,4]triazolo[1,5-a]pyridin-7-yloxy)-3-chlorophenyl)amino)pyrimido[5,4-d]pyrimidin-2-yl)pyrrolidin-3-yl)propan-2-ol] | 15.2 | 22.7 | 953 | 19.7 | ≥ 5000 | 1.7 | – | 7.3 | –
Cc1cc(Nc2ncnc3cnc(N(C)[C@@H]4CCOC4)nc23)ccc1Oc1ccc2c(c1)ncn2C [Example 128, (R)—N2-methyl-N8-(3-methyl-4-((1-methyl-1H-benzo[d]imidazol-5-yl)oxy)phenyl)-N2-(tetrahydrofuran-3-yl)pyrimido[5,4-d]pyrimidine-2,8-diamine] | 21 | 20 | 3270 | 36.3 | ≥ 5000 | 1.6 | – | 1.4 | –
Cc1cc(Nc2ncnc3cnc(N4CC[C@](C)(O)C4)nc23)ccc1Oc1ccc2c(c1)ncn2C [Example 179, (S)-3-methyl-1-(8-((3-methyl-4-((1-methyl-1H-benzo[d]imidazol-5-yl)oxy)phenyl)amino)pyrimido[5,4-d]pyrimidin-2-yl)pyrrolidin-3-ol] | 10.1 | 12.9 | 3830 | 28.2 | ≥ 5000 | 1.9 | – | 15.3 | –
Cc1cc(Nc2ncnc3cnc(N4C[C@H](O)C5(CC5)C4)nc23)ccc1Oc1ccc2c(c1)ncn2C [Example 212, (R)-5-(8-((3-methyl-4-((1-methyl-1H-benzo[d]imidazol-5-yl)oxy)phenyl)amino)pyrimido[5,4-d]pyrimidin-2-yl)-5-azaspiro[2.4]heptan-7-ol] | 12.8 | 22.9 | 2410 | 10.3 | ≥ 5000 | 2.8 | 31.4 | – | –
Cn1cnc2cc(Oc3ccc(Nc4ncnc5cnc(N6CCC6)nc45)cc3Cl)ccc21.O=C(O)C(F)(F)F [Example 148, 6-(azetidin-1-yl)-N-(3-chloro-4-((1-methyl-1H-benzo[d]imidazol-5-yl)oxy)phenyl)pyrimido[5,4-d]pyrimidin-4-amine 2,2,2-trifluoroacetate] | – | 34 | ≥ 10000 | 13 | ≥ 5000 | 1.3 | – | – | 24.3
Cn1cnc2cc(Oc3ccc(Nc4ncnc5cnc(N6CCN7CCOC[C@@H]7C6)nc45)cc3Cl)ccc21.O=C(O)C(F)(F)F.O=C(O)C(F)(F)F [Example 151, (S)—N-(3-chloro-4-((1-methyl-1H-benzo[d]imidazol-5-yl)oxy)phenyl)-6-(hexahydropyrazino[2,1-c][1,4]oxazin-8(1H)-yl)pyrimido[5,4-d]pyrimidin-4-amine bis(2,2,2-trifluoroacetate)] | – | 61.4 | ≥ 10000 | 18.8 | ≥ 5000 | 1.2 | – | – | 24.6
Cc1cc(Nc2ncnc3cnc(N4CC[C@@H](O)C4)nc23)ccc1Oc1ccc2c(c1)ncn2C [Example 169, (R)-1-(8-((3-methyl-4-((1-methyl-1H-benzo[d]imidazol-5-yl)oxy)phenyl)amino)pyrimido[5,4-d]pyrimidin-2-yl)pyrrolidin-3-ol] | 8.5 | 11.2 | 1630 | 4.7 | ≥ 5000 | 3.6 | – | – | –
